{"source": "patent US11801252B2", "about": "“Pharmaceutical composition” (Jiangsu Hengrui Medicine Co., Ltd., priority 2021, dated 2023)", "key": {"[1]": {"assay": "Pharmacokinetics study in male cynomolgus monkeys (Test Example 1)", "format": "in vivo", "details": "cynomolgus monkey, plasma, po, 300 mg/animal, after Formulation 2 (2 tablets, 300 mg/animal) PO, mean ± SD; for AUC(0-inf): n = 8, read-out: AUC(0-∞) of SNAC in plasma; for Cmax: n = 8, read-out: Cmax of SNAC in plasma; for half-life: n = 8, read-out: T1/2 of SNAC in plasma (converted); for Tmax: n = 8, read-out: Tmax of SNAC in plasma; for AUC(0-t): t = 24 h, n = 8, read-out: AUC(0-t) of SNAC in plasma", "protocol": "Eight male cynomolgus monkeys were administered by single oral gavage, including 4 cycles, 5 days per cycle, 20 days in total (see Table 4 for the protocol).\nThe animals in cycle I and II were fasted before administration, while the animals in cycle III and IV were given high-fat food before administration. Animals in cycle I and III were given 300 mg of Formulation 2 (2 tablets of abiraterone acetate, T, comprising 300 mg of abiraterone), while animals in cycle II and IV were given 1000 mg of reference preparation (4 tablets of abiraterone acetate Zytiga®, R). Blood samples were collected before administration or at 0.25, 0.5, 1, 1.5, 2, 2.5, 3, 4, 8, 12 and 24 hours after administration. The validated LC-MS/MS method was used to determine the concentrations of abiraterone and SNAC in plasma samples. Only abiraterone was detected for those given reference preparation, while abiraterone and SNAC were both detected for those given test formulations. The main pharmacokinetic parameters were calculated according to the concentrations of abiraterone and SNAC in plasma using Phoenix WinNonlin® 7.0 software. The main pharmacokinetic data of abiraterone in plasma in cycles I-IV are shown in Table 5, and the main pharmacokinetic data of SNAC in plasma in cycles I and III are shown in Table 6."}, "[2]": {"assay": "In vivo food effects study in healthy subjects (Test Example 3)", "set-up": "species or system human (healthy male subjects)", "details": "after Test Formulation 300 mg single oral; for AUC—% Extrap of SNAC / CLz/F of SNAC / λz of SNAC: healthy male subjects, Mean ± SD; for AUC(0-t) / AUC(0-inf) / Cmax / MRT last / MRT inf / Vd/F / half-life / Tmax: male, human, plasma, po, 300 mg; for AUC(0-t): read-out: AUC0-t of SNAC; for AUC(0-inf): read-out: AUC0-∞ of SNAC; for Cmax: read-out: Cmax of SNAC; for MRT last: read-out: MRT0-t of SNAC; for MRT inf: read-out: MRT0-∞ of SNAC; for Vd/F: read-out: Vz/F of SNAC; for half-life: read-out: t1/2 of SNAC (converted); for Tmax: read-out: Tmax of SNAC", "source_text": "To study the effect of food on the pharmacokinetic characteristics of abiraterone acetate tablets through a single oral administration of abiraterone acetate tablets under fasting state or after meal, or a single oral administration of abiraterone acetate tablets (Zytiga®) produced by Patheon Inc. under modified fasting state, in healthy subjects.\nA single-center, randomized, open-label, three-period, self-controlled crossover trial design was applied. A total of 24 healthy male subjects were planned to be enrolled in the study. The washout period between each dose group was seven days. Blood samples were collected at a series of time points, and safety test was performed. The HPLC-MS/MS method was used to determine the plasma concentration of abiraterone and SNAC at different time points after drug administration. The non-compartmental model was used to calculate the pharmacokinetic parameters, and statistical analysis was performed.\nThe subjects were orally administered a single dose of the test formulation (T) under fasting state at a dose of 300 mg (150 mg×2 tablets), a single dose of the test formulation (T) of 300 mg abiraterone acetate tablets (I) (150 mg×2 tablets) after a high-fat meal (the total calories were approximately 800˜1,000 kcal, wherein approximately 50% of the calories were derived from fat; the test meal of each test cycle for the postprandial administration should be consistent; a high-fat meal was given 30 minutes before drug administration and should be finished within 30 minutes), or a single dose of the reference preparation of 1,000 mg abiraterone acetate tablets (Zytiga®) (250 mg×4 tablets) under modified fasting state (a medium-fat meal was given two hours before drug administration and one hour after drug administration; the total calories were approximately 450 kcal wherein 30% of the calories were derived from fat; the meal should be finished within 30 minutes), with 240 mL of warm water, in the morning on the day of drug administration for each cycle. Liquid was prohibited before administration and one hour after drug administration, and a standard lunch and dinner (a standardized light diet) were given approximately 4 and 10 hours after drug administration. The drug was swallowed whole instead of being sucked or chewed.\nTest Formulation (T): Abiraterone acetate tablets (Formulation 5), specification: 150 mg;\nReference Preparation (R): Abiraterone Acetate Tablets; produced by Patheon Inc.; trade name: Zytiga®; specification: 250 mg.\nThe PKPS was used for the statistical analysis of pharmacokinetic parameters.\nWith the dosing order, dosing cycle and dosing regimen as fixed effects, the subjects were included as random effects in the linear mixed model as random effects. The least-squares mean ratio of Cmax, AUC0-t and AUC0-∞ of abiraterone in plasma after oral administration of the test formulation T under a high-fat meal or fasting states, and its 90% confidence interval were calculated.\nWith the dosing orders, dosing cycle and dosing regimen as fixed effects, the subjects were included as random effects in the linear mixed model. The least-squares mean ratio of Cmax, AUC0-t and AUC0-∞ of abiraterone in plasma after oral administration of the test formulation T under a high-fat meal and oral administration of the reference formulation R under modified fasting states, and its 90% confidence interval were calculated."}, "[3]": {"details": "stated without source; cited from earlier work"}, "[4]": {"details": "after a high-fat meal, N = 24, Mean ± SD"}, "[5]": {"details": "fasting state, N = 23, Mean ± SD"}}, "note": "Like-named read-outs stand apart in the source and are kept apart here."}
{"smiles": "O=C([O-])CCCCCCCNC(=O)c1ccccc1O.[Na+]", "note": "[SNAC, sodium 8-(salicylamido)caprylate]", "values": [{"measurement": "AUC(0-inf)", "setting": "[1]; fasting", "result": "40900 ± 10600", "unit": "ng·h/mL"}, {"measurement": "Cmax", "setting": "[1]; fasting", "result": "34200 ± 18000", "unit": "ng/mL"}, {"measurement": "half-life", "setting": "[1]; fasting", "result": "190 ± 55.8", "unit": "min"}, {"measurement": "Tmax", "setting": "[1]; fasting", "result": "0.72 ± 0.49", "unit": "h"}, {"measurement": "AUC(0-inf)", "setting": "[1]; high fat diet", "result": "18700 ± 5620", "unit": "ng·h/mL"}, {"measurement": "Cmax", "setting": "[1]; high fat diet", "result": "4660 ± 2400", "unit": "ng/mL"}, {"measurement": "half-life", "setting": "[1]; high fat diet", "result": "163 ± 44.4", "unit": "min"}, {"measurement": "Tmax", "setting": "[1]; high fat diet", "result": "2.88 ± 0.74", "unit": "h"}, {"measurement": "AUC(0-t)", "setting": "[1]; fasting", "result": "40300 ± 10400", "unit": "ng·h/mL"}, {"measurement": "AUC(0-t)", "setting": "[1]; high fat diet", "result": "18400 ± 5740", "unit": "ng·h/mL"}, {"measurement": "AUC—% Extrap of SNAC", "setting": "[2]; after a high-fat meal, N = 24", "result": "0.46 ± 0.63", "unit": "%"}, {"measurement": "CLz/F of SNAC", "setting": "[2]; after a high-fat meal, N = 24", "result": "198.03 ± 28.78", "unit": "mL/h"}, {"measurement": "λz of SNAC", "setting": "[2]; after a high-fat meal, N = 24", "result": "0.27 ± 0.12", "unit": "h⁻¹"}, {"measurement": "AUC—% Extrap of SNAC", "setting": "[2]; fasting state, N = 23", "result": "0.66 ± 0.54", "unit": "%"}, {"measurement": "CLz/F of SNAC", "setting": "[2]; fasting state, N = 23", "result": "255.02 ± 72.16", "unit": "mL/h"}, {"measurement": "λz of SNAC", "setting": "[2]; fasting state, N = 23", "result": "0.19 ± 0.08", "unit": "h⁻¹"}, {"measurement": "AUC(0-t)", "setting": "[2]; [4]", "result": "1540 ± 247", "unit": "ng·h/mL"}, {"measurement": "AUC(0-inf)", "setting": "[2]; [4]", "result": "1550 ± 245", "unit": "ng·h/mL"}, {"measurement": "Cmax", "setting": "[2]; [4]", "result": "1120 ± 574", "unit": "ng/mL"}, {"measurement": "MRT last", "setting": "[2]; [4]", "result": "2.28 ± 0.99", "unit": "h"}, {"measurement": "MRT inf", "setting": "[2]; [4]", "result": "2.36 ± 1", "unit": "h"}, {"measurement": "Vd/F", "setting": "[2]; [4]", "result": "0.87 ± 0.362", "unit": "L"}, {"measurement": "half-life", "setting": "[2]; [4]", "result": "184 ± 71.4", "unit": "min"}, {"measurement": "Tmax", "setting": "[2]; after a high-fat meal, N = 24, median", "result": 67.8, "unit": "min"}, {"measurement": "AUC(0-t)", "setting": "[2]; [5]", "result": "1250 ± 305", "unit": "ng·h/mL"}, {"measurement": "AUC(0-inf)", "setting": "[2]; [5]", "result": "1250 ± 306", "unit": "ng·h/mL"}, {"measurement": "Cmax", "setting": "[2]; [5]", "result": "1580 ± 697", "unit": "ng/mL"}, {"measurement": "MRT last", "setting": "[2]; [5]", "result": "1.59 ± 1.35", "unit": "h"}, {"measurement": "MRT inf", "setting": "[2]; [5]", "result": "1.74 ± 1.38", "unit": "h"}, {"measurement": "Vd/F", "setting": "[2]; [5]", "result": "1.62 ± 0.949", "unit": "L"}, {"measurement": "half-life", "setting": "[2]; [5]", "result": "253 ± 103", "unit": "min"}, {"measurement": "Tmax", "setting": "[2]; fasting state, N = 23, median", "result": 30, "unit": "min"}, {"measurement": "PKA", "setting": "[3]", "result": 5.0}]}
